{"source": "patent US20240239759A1", "about": "“ISOXAZOLINE COMPOSITIONS AND THEIR USE AS ANTIPARASITICS” (Intervet Inc., priority 2007, published 2024)", "key": {"adult fleas (C. felis)": {"tested_on": "adult fleas (C. felis)", "assay": "Efficacy against fleas on mice (Example 2A)", "assay_type": "in vivo, Ctenocephalides felis", "experimental": "(§1) Mice were divided into groups of three, and treated topically with 100 ppm body weight, orally with 10 mg/kg bodyweight, or subcutaneously with 10 mg/kg bodyweight of Compound 11-1, fipronil (positive control), or nothing (negative control). These mice were sedated and infested with adult fleas (C. felis) 1, 3, 6, and 24 hr after treatment. Fleas were recovered from the mice after approximately 30 minutes of feeding. The assessment of flea inhibition (% of dead and damaged fleas) was conducted 1 and 24 hr after each infestation."}, "[1]": {"assay": "Side effects in mice, flea study (Example 2A)", "assay_type": "in vivo", "conditions": "topical 100 ppm, oral or subcutaneous 10 mg/kg", "experimental": "as §1"}, "[2]": {"assay": "Side effects in Guinea pigs, hard tick studies (Example 2D)", "assay_type": "in vivo", "conditions": "guinea pig, in vivo", "experimental": "(§2) Guinea pigs were divided into groups of three. Each group was subjected to one of the following treatments with either Compound 11-1, fipronil (positive control), or neither (negative control):\n(§3) • 1. 100 ppm body weight topical administration by animal dip • 2. 10 mg/kg body weight oral administration • 3. 10 mg/kg body weight subcutaneous administration • 4. No treatment (negative control)\n(§4) • 1. 25 ppm body weight topical administration by animal dip • 2. 2.5 mg/kg body weight oral administration • 3. 2.5 mg/kg body weight subcutaneous administration • 4. No treatment (negative control) One day before the treatment, all the Guinea pigs were infested with 100 vital juvenile (“nymph”) hard ticks (brown dog ticks, R. sanguineus). Engorged, detached nymphs were counted (eN) from Day 4 to Day 8 to calculate the efficacy of the treatments according to following formula: […]\nIn the first study, 32 engorged R. sanguineus nymphs were collected from animals of the untreated negative control group. And in the second study, 75 engorged R. sanguineus nymphs were collected from animals of the untreated negative control group. […] Thus, the inhibition of engorged nymphs for both Compound 11-1 and fipronil was 100%."}, "[3]": {"tested_on": "cat fleas (Ctenocephalides felis)", "assay": "Adult fleas fed on artificial membranes with spiked blood (Example 1)", "conditions": "48 hr continuous feeding", "experimental": "Adult fleas (20-30) were fed on artificial membranes with blood spiked with Compound 10-1, Compound 11-1, or a positive control (fipronil) at a concentration of 100, 10, or 1 ppm. Flea efficacy was assessed after 48 hr of continuous feeding by comparing the number of killed and damaged fleas with the number of fed fleas. Flea efficacy was 100% for Compound 10-1, Compound 11-1, and fipronil at 100, 10, and 1 ppm."}, "[4]": {"tested_on": "brown dog ticks, R. sanguineus (nymphs)", "assay": "Efficacy against hard (Ixodide) ticks on Guinea pigs (Example 2D)", "assay_type": "in vivo, Rhipicephalus sanguineus", "conditions": "all treated groups of Study 1 (100 ppm dip, 10 mg/kg oral, 10 mg/kg subcutaneous) and Study 2 (25 ppm dip, 2.5 mg/kg oral, 2.5 mg/kg subcutaneous), Day 4 to Day 8", "experimental": "as §2, §3, §4\nIn addition, collected ticks were assessed for molting into the next stage."}, "[5]": {"tested_on": "bed bugs (C. lectularius)", "assay": "Efficacy against bed bugs on Guinea pigs (Example 2C)", "assay_type": "in vivo, Cimex lectularius", "conditions": "Guinea pig", "experimental": "(§5) Six Guinea pigs were treated orally, subcutaneously, or intraperitoneally with 10 mg/kg bodyweight of Compound 11-1 or fipronil (positive control). The Guinea pigs were locally co-infested with juvenile soft ticks (O. moubata) and bed bugs (C. lectularius) once before the treatment, and at different time points after treatment between days 2 and 50. Ten engorged ticks/bed bugs were collected to assess the percentage of killed individuals per species 24 hr after each infestation.\n(§6) For Guinea pigs treated with Compound 11-1, the ticks and bed bugs died within 1 to 5 hr following infestation up to Day 29, and within 8 to 24 hr after day 29. For Guinea pigs treated with fipronil, ticks and bed bugs died within 1 to 7 hr after infestation up to Day 29, and within 8 to 24 hr after day 29."}, "M. musculinus": {"tested_on": "M. musculinus", "assay": "Efficacy against mites on mice (Example 2B)", "assay_type": "in vivo, Myocoptes musculinus", "parameters": "key: “+”=low infestation rate; “++”=medium infestation rate; “+++”=high infestation rate", "conditions": "repeated 7 days later", "experimental": "The mice were divided into groups of three, and treated topically with 100 ppm body weight, orally with 10 mg/kg body weight, or subcutaneously with 10 mg/kg body weight of Compound 11-1, fipronil (positive control), or nothing (negative control). This treatment was then repeated 7 days later. The infestation rate per mouse (“+”=low infestation rate, “++”=medium infestation rate, “+++”=high infestation rate) was assessed repeatedly on days 1, 6, 9, 13, and 23. Efficacy was defined as the inhibition of the mite infestation rate on treated mice relative to the negative control group."}, "[6]": {"assay": "Side effects in Guinea pigs, soft tick and bed bug study (Example 2C)", "assay_type": "in vivo", "conditions": "Guinea pigs; oral, subcutaneous or intraperitoneal 10 mg/kg", "experimental": "as §5"}, "[7]": {"tested_on": "juvenile soft ticks (O. moubata)", "assay": "Efficacy against soft (Argaside) ticks on Guinea pigs (Example 2C)", "assay_type": "in vivo, Ornithodoros moubata", "conditions": "Guinea pig, up to Day 50", "experimental": "as §5, §6"}}, "note": "Where “and” joins values, the source holds several entries; their conditions need not be identical. Identical values can stand only once."}
{"smiles": "N#Cc1nn(-c2c(Cl)cc(C(F)(F)F)cc2Cl)c(N)c1[S+]([O-])C(F)(F)F", "note": "(centres unmarked) [fipronil, reference compound]", "values": [{"measurement": "Flea inhibition (% of dead and damaged fleas)", "setting": "adult fleas (C. felis); oral 10 mg/kg, infested 1 hr after treatment, assessed 1 hr after infestation", "value": "0-2%"}, {"measurement": "Flea inhibition (% of dead and damaged fleas)", "setting": "adult fleas (C. felis); oral 10 mg/kg, infested 1 hr after treatment, assessed 24 hr after infestation", "value": 3.3, "unit": "%"}, {"measurement": "Flea inhibition (% of dead and damaged fleas)", "setting": "adult fleas (C. felis); oral 10 mg/kg, infested 3 hr after treatment, assessed 1 hr after infestation", "value": "0-2%"}, {"measurement": "Flea inhibition (% of dead and damaged fleas)", "setting": "adult fleas (C. felis); oral 10 mg/kg, infested 3 hr after treatment, assessed 24 hr after infestation", "value": 12.3, "unit": "%"}, {"measurement": "Flea inhibition (% of dead and damaged fleas)", "setting": "adult fleas (C. felis); oral 10 mg/kg, infested 6 hr after treatment, assessed 1 hr after infestation", "value": "0-2%"}, {"measurement": "Flea inhibition (% of dead and damaged fleas)", "setting": "adult fleas (C. felis); oral 10 mg/kg, infested 6 hr after treatment, assessed 24 hr after infestation", "value": 6.7, "unit": "%"}, {"measurement": "Flea inhibition (% of dead and damaged fleas)", "setting": "adult fleas (C. felis); oral 10 mg/kg, infested 24 hr after treatment, assessed 1 hr after infestation", "value": "0-2%"}, {"measurement": "Flea inhibition (% of dead and damaged fleas)", "setting": "adult fleas (C. felis); oral 10 mg/kg, infested 24 hr after treatment, assessed 24 hr after infestation", "value": 7.7, "unit": "%"}, {"measurement": "Flea inhibition (% of dead and damaged fleas)", "setting": "adult fleas (C. felis); subcutaneous 10 mg/kg, infested 1 hr after treatment, assessed 1 hr after infestation", "value": "0-2%"}, {"measurement": "Flea inhibition (% of dead and damaged fleas)", "setting": "adult fleas (C. felis); subcutaneous 10 mg/kg, infested 1 hr after treatment, assessed 24 hr after infestation", "value": 1.0, "unit": "%"}, {"measurement": "Flea inhibition (% of dead and damaged fleas)", "setting": "adult fleas (C. felis); subcutaneous 10 mg/kg, infested 3 hr after treatment, assessed 1 hr after infestation", "value": "0-2%"}, {"measurement": "Flea inhibition (% of dead and damaged fleas)", "setting": "adult fleas (C. felis); subcutaneous 10 mg/kg, infested 3 hr after treatment, assessed 24 hr after infestation", "value": 15.7, "unit": "%"}, {"measurement": "Flea inhibition (% of dead and damaged fleas)", "setting": "adult fleas (C. felis); subcutaneous 10 mg/kg, infested 6 hr after treatment, assessed 1 hr after infestation", "value": "0-2%"}, {"measurement": "Flea inhibition (% of dead and damaged fleas)", "setting": "adult fleas (C. felis); subcutaneous 10 mg/kg, infested 6 hr after treatment, assessed 24 hr after infestation", "value": 97.7, "unit": "%"}, {"measurement": "Flea inhibition (% of dead and damaged fleas)", "setting": "adult fleas (C. felis); subcutaneous 10 mg/kg, infested 24 hr after treatment, assessed 1 hr after infestation", "value": "0-2%"}, {"measurement": "Flea inhibition (% of dead and damaged fleas)", "setting": "adult fleas (C. felis); subcutaneous 10 mg/kg, infested 24 hr after treatment, assessed 24 hr after infestation", "value": 94.3, "unit": "%"}, {"measurement": "Flea inhibition (% of dead and damaged fleas)", "setting": "adult fleas (C. felis); topical 100 ppm body weight, infested 1 hr after treatment, assessed 1 hr after infestation", "value": "0-2%"}, {"measurement": "Flea inhibition (% of dead and damaged fleas)", "setting": "adult fleas (C. felis); topical 100 ppm body weight, infested 1 hr after treatment, assessed 24 hr after infestation", "value": 100, "unit": "%"}, {"measurement": "Flea inhibition (% of dead and damaged fleas)", "setting": "adult fleas (C. felis); topical 100 ppm body weight, infested 3 hr after treatment, assessed 1 hr after infestation", "value": "0-2%"}, {"measurement": "Flea inhibition (% of dead and damaged fleas)", "setting": "adult fleas (C. felis); topical 100 ppm body weight, infested 3 hr after treatment, assessed 24 hr after infestation", "value": 94.3, "unit": "%"}, {"measurement": "Flea inhibition (% of dead and damaged fleas)", "setting": "adult fleas (C. felis); topical 100 ppm body weight, infested 6 hr after treatment, assessed 1 hr after infestation", "value": "0-2%"}, {"measurement": "Flea inhibition (% of dead and damaged fleas)", "setting": "adult fleas (C. felis); topical 100 ppm body weight, infested 6 hr after treatment, assessed 24 hr after infestation", "value": 100, "unit": "%"}, {"measurement": "Flea inhibition (% of dead and damaged fleas)", "setting": "adult fleas (C. felis); topical 100 ppm body weight, infested 24 hr after treatment, assessed 1 hr after infestation", "value": "0-2%"}, {"measurement": "Flea inhibition (% of dead and damaged fleas)", "setting": "adult fleas (C. felis); topical 100 ppm body weight, infested 24 hr after treatment, assessed 24 hr after infestation", "value": 76.7, "unit": "%"}, {"measurement": "Side effects", "setting": "[1]", "value": "No side effects were observed"}, {"measurement": "Side effects", "setting": "[2]", "value": "No side effects were observed"}, {"measurement": "Flea efficacy", "setting": "[3]; blood spiked at 1 ppm", "value": 100, "unit": "%"}, {"measurement": "Flea efficacy", "setting": "[3]; blood spiked at 10 ppm", "value": 100, "unit": "%"}, {"measurement": "Flea efficacy", "setting": "[3]; blood spiked at 100 ppm", "value": 100, "unit": "%"}, {"measurement": "Engorged R. sanguineus nymphs collected", "setting": "[4]", "value": "no nymphs were collected"}, {"measurement": "Inhibition of engorged nymphs", "setting": "[4]", "value": 100, "unit": "%"}, {"measurement": "Efficacy against bed bugs (killed 24 hr after infestation)", "setting": "[5]; intraperitoneal 10 mg/kg, up to Day 18", "value": "100% efficacy was observed up to Day 18."}, {"measurement": "Efficacy against bed bugs (killed 24 hr after infestation)", "setting": "[5]; oral 10 mg/kg, up to Day 18", "value": "100% efficacy was observed up to Day 18."}, {"measurement": "Efficacy against bed bugs (killed 24 hr after infestation)", "setting": "[5]; subcutaneous 10 mg/kg, on Day 37", "value": "up to Day 35. 50% efficacy was observed"}, {"measurement": "Mite infestation rate per mouse", "setting": "M. musculinus; oral 10 mg/kg, Day 1", "value": "+++"}, {"measurement": "Mite infestation rate per mouse", "setting": "M. musculinus; oral 10 mg/kg, Day 6", "value": "++ to +++"}, {"measurement": "Mite infestation rate per mouse", "setting": "M. musculinus; oral 10 mg/kg, Day 9", "value": "++ to +++"}, {"measurement": "Mite infestation rate per mouse", "setting": "M. musculinus; oral 10 mg/kg, Day 13", "value": "+"}, {"measurement": "Mite infestation rate per mouse", "setting": "M. musculinus; oral 10 mg/kg, Day 23", "value": "+"}, {"measurement": "Mite infestation rate per mouse", "setting": "M. musculinus; subcutaneous 10 mg/kg, Day 1", "value": "+++"}, {"measurement": "Mite infestation rate per mouse", "setting": "M. musculinus; subcutaneous 10 mg/kg, Day 6", "value": "2 mice: + to ++ and 1 mouse: +++"}, {"measurement": "Mite infestation rate per mouse", "setting": "M. musculinus; subcutaneous 10 mg/kg, Day 9", "value": "2 mice: + to ++ and 1 mouse: +++"}, {"measurement": "Mite infestation rate per mouse", "setting": "M. musculinus; subcutaneous 10 mg/kg, Day 13", "value": "+"}, {"measurement": "Mite infestation rate per mouse", "setting": "M. musculinus; subcutaneous 10 mg/kg, Day 23", "value": "+ to ++"}, {"measurement": "Mite infestation rate per mouse", "setting": "M. musculinus; topical 100 ppm body weight, Day 1", "value": "2 mice: + to ++ and 1 mouse: +++ (all"}, {"measurement": "Mite infestation rate per mouse", "setting": "M. musculinus; topical 100 ppm body weight, Day 6", "value": "+ to ++"}, {"measurement": "Mite infestation rate per mouse", "setting": "M. musculinus; topical 100 ppm body weight, Day 9", "value": "2 mice: none and 1 mouse: +"}, {"measurement": "Mite infestation rate per mouse", "setting": "M. musculinus; topical 100 ppm body weight, Day 13", "value": "none"}, {"measurement": "Mite infestation rate per mouse", "setting": "M. musculinus; topical 100 ppm body weight, Day 23", "value": "none"}, {"measurement": "Side effects", "setting": "[6]", "value": "No side effects were observed"}, {"measurement": "Efficacy against soft ticks (killed 24 hr after infestation)", "setting": "[7]; intraperitoneal 10 mg/kg", "value": "100% efficacy was observed up to Day 50."}, {"measurement": "Efficacy against soft ticks (killed 24 hr after infestation)", "setting": "[7]; oral 10 mg/kg", "value": "100% efficacy was observed up to Day 50."}, {"measurement": "Efficacy against soft ticks (killed 24 hr after infestation)", "setting": "[7]; subcutaneous 10 mg/kg", "value": "100% efficacy was observed up to Day 50."}]}
